Patent US20240343734A1, “NOVEL SMALL MOLECULE INHIBITORS OF PUS7 AND USES THEREOF” (City of Hope, priority 2021, published 2024)

Test system: GSCs
Experiment: GSC growth (several lines, stated for GSCs in general)
Assay type: cell-based, human
Details: 0.5, 1, 2, 4, 8 μM
Experimental: GSCs were derived from newly diagnosed grade IV GBM patients. GSCs and NSCs were maintained in spheres in DMEM-F12 medium supplemented with 2 mM L-glutamine, 27.4 mM HEPES, B27, 20 ng ml^−1 EGF, 20 ng ml^−1 FGF and 5 μg ml^−1 heparin as described (Cui, Q., et al., supra). Established GBM cells were maintained in DMEM medium supplemented with 2 mM L-glutamine and 10% FBS. All cultures were mycoplasma-free as confirmed using MycoAlert PLUS Mycoplasma Detection Kit (Lonza). GSCs or NSCs were treated with PUS7 inhibitors at indicated concentration for 72 h. GSCs were treated with IFNα at indicated doses for 6 days.
GSC growth, sphere formation and limiting dilution assays were performed as described 9 Cui, Q., et al., supra). For growth, GSCs were seeded at 5×10^4 cells per well in 24-well plates and cultured for 7 days. Cell growth was monitored by cell counting using a hemocytometer. For sphere formation, GSCs were seeded at 1 cell per well in 96-well plates or 100 cells per well in 48-well plates and cultured for 2 weeks. Spheres were counted under microscope. For limiting dilution assay, GSCs were seeded into 96-well plates at 1, 5, 10, 20, 50 and 100 cells per well. The number of sphere-forming wells was recorded in two weeks. The limiting dilution analysis was performed using the extreme limiting dilution analysis software at http://bioinf.wehi.edu.au/software/elda.

NC(=O)c1[nH]nc([C@@H]2O[C@H](CO)[C@@H](O)[C@H]2O)c1O [pyrazofurin]
dose effect on the growth of PBT003 and PBT707 GSCs (significance) (FIG. 17B): p<0.0001 for 0.5, 1, 2, 4, and 8 μM conditions | dose effect on the growth of PBT0030, NSC005, and NSC010 (significance) (FIG. 17C): p<0.0001 for 0.5, 1, 2, 4, and 8 μM conditions for PBT030 only
